Literature values as cited in US20040037835A1, “Cytotoxic agents” (priority 1995, published 2004).

What was measured:
CHO cells = conditions: in vitro co-culture of Walker cells and CHO cells
E. coli nitroreductase = E. coli nitroreductase (Escherichia coli, UniProt P38489)
E. coli nitroreductase, sequence (P38489 whole entry): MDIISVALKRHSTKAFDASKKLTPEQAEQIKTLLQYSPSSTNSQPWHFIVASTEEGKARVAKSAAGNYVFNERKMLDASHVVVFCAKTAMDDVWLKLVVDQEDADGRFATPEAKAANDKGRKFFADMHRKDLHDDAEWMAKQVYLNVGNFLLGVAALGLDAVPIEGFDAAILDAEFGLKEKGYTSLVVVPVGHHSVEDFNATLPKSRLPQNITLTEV

Structure (SMILES): NC(=O)c1cc(N2CC2)c([N+](=O)[O-])cc1[N+](=O)[O-] [CB 1954, 5-(aziridin-1-yl)-2,4-dinitrobenzamide]
- bystander effect: kill of CHO cells that do not contain nitroreductase (CHO cells): substantially killed
- substrate for the enzyme (E. coli nitroreductase): poor substrate
